# In patent US3976545A, “1,2,4-Triazol E-3-carboxamides as antiviral agents” (ICN Pharmaceuticals, Inc., priority 1975, dated 1976):
# Read-outs that look alike come from different tables or passages of the source.
# Experiments:
# Nucleoside Phosphorylase = target: T1, Nucleoside Phosphorylase (Bos taurus, UniProt P55859); test: Nucleoside Phosphorylase assay (conversion of 1,2,4-triazole-3-carboxamide to its 1-β-D-ribofuranosyl nucleoside); format: biochemical, calf (spleen); conditions: pH 7.4, 25°, 5 minutes
# T1 construct: purchased Sigma Chemical Co., St. Louis, Mo; host or cells: calf spleen
# T1 sequence (P55859 1-289): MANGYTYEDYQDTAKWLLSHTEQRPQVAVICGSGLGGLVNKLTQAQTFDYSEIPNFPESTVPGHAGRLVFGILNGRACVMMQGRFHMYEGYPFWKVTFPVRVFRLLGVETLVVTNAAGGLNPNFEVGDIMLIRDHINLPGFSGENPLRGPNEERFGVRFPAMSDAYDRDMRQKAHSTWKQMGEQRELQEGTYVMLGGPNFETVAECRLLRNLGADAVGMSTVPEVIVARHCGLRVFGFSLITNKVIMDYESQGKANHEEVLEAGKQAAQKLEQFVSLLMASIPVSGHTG
# Experimental: 1,2,4-Triazole-3-carboxamide may be converted to 1-β-D-ribofuranosyl- 1,2,4-triazole-3-carboxamide by reaction with the enzyme Nucleoside Phosphorylase at a pH within the range of about 5 to about 9, preferably 7 to 8, at an enzyme concentration of from about 0.015 to about 0.75 mg/ml, preferably about 0.15 mg/ml, and a temperature within the range of about 0° to about 50°C, with the preferred temperature being approximately 25° to about 35°C. Satisfactory results have been obtained when the triazole base is present in a concentration greater than 5×10^^-5 M and ribose-1-phosphate is present at a concentration greater than 2×10^^-5 M. Generally about 0.1 to about 2 hours, preferably about 0.5 to about 1 hour, are required for the reaction. The source of the enzyme may be animal, tissue, or bacteria. The principal bacterial sources are E. coli and […], while a variety of animal sources exist, including beef spleen, rat liver, calf liver, calf thymus, beef liver, monkey brain, horse liver, calf spleen, human erythrocytes, fish skin, and fish muscle. […]
# The samples were incubated at 25° for 5 minutes and then frozen in dry ice - isopropanol to stop the reaction. […] Areas of the chromatograms coinciding with 1,2,4-triazole-3-carboxamide were removed and counted to determine the percent of conversion of 1,2,4 -triazole-3-carboxamide to 1-β-D-ribofuranosyl-1,2,4-triazole-3-carboxamide.
# Type 1 Herpes = test: CPE inhibition in KB cells, Type 1 Herpes; format: cell-based; conditions: VR >0.5 significant, <0.5 slight activity
# Experimental: (§1) They were tested for activity using the virus-induced cytopathogenic effect (CPE) method of Sidwell, et al., (Applied Microbiology 22:797-801, 1971). Briefly, the CPE procedure includes the dissolution of the antiviral agent in a cell culture medium consisting of vitamins, amino acids, serum, buffer, penicillin, streptomycin and indicator dye in water. The virus suspended in the cell culture medium was added to an established monolayer of KB cells, and an equal volume of the antiviral agent was then added within 15 minutes. The infected treated cells were graded following microscopic examination. Controls for each experiment include cell controls (cells and cell culture medium only), virus controls (cells and virus and cell culture medium) and toxicity controls (cells and chemical and cell culture medium).
# (§2) The virus rating (VR) system of Sidwell et al, described in Applied Microbiology, supra, was used to evaluate the degree of significance of CPE inhibition.
# Type 2 Herpes = test: CPE inhibition in KB cells, Type 2 Herpes; format: cell-based; conditions: VR >0.5 significant, <0.5 slight activity
# Experimental: as §1, §2
# Vaccinia = format: cell-based; conditions: KB cells, VR >0.5 significant, <0.5 slight activity
# Type 1A Rhino = test: CPE inhibition in KB cells, Type 1A Rhino; format: cell-based; conditions: VR >0.5 significant, <0.5 slight activity
# Experimental: as §1, §2
# Type 13 Rhino = test: CPE inhibition in KB cells, Type 13 Rhino; format: cell-based; conditions: VR >0.5 significant, <0.5 slight activity
# Experimental: as §1, §2
# Type 8 Rhino = test: CPE inhibition in KB cells, Type 8 Rhino; format: cell-based; conditions: VR >0.5 significant, <0.5 slight activity
# Experimental: as §1, §2
# Type 56 Rhino = test: CPE inhibition in KB cells, Type 56 Rhino; format: cell-based; conditions: VR >0.5 significant, <0.5 slight activity
# Experimental: as §1, §2
# Type 3 Parainfluenza = test: CPE inhibition in KB cells, Type 3 Parainfluenza; format: cell-based; conditions: VR >0.5 significant, <0.5 slight activity
# Experimental: as §1, §2
# Measles = Measles virus plaque inhibition (agar overlay); format: cell-based; conditions: Measles morbillivirus, 96 h, day 4; for inhibition at 20 µg/mL: 20 μg/ml; for inhibition at 100 µg/mL: 100 μg/ml; for inhibition at 500 µg/mL: 500 μg/ml
# Source text: In experiments with measles virus, the above method was altered in that the infected cells were covered with an agar-serum-bicarbonate overlay containing the antiviral compounds so that viral plaques could be discerned. These plaques were strained with neutral red dye on day 4 and counted, with any reduction in plaque number resulting from exposure to the antiviral compound determined. The methodology for the experiment is as described by Wear et al (Exptl. and Molecular Pathol. 9:405-417, 1968).
# influenza A2 virus = format: in vivo, Female Swiss Mice; conditions: for Average Lung Consolidation: Day 25, scale of 0-4; for effectiveness against influenza virus: summary in words
# mice = conditions: for MST / Survivors Per Total / Average Lung Consolidation / HA Titer Per ml: Drug + MEM; for Average Lung Consolidation: Day 25, scale of 0-4; for HA Titer Per ml: lung homogenates Day 25
# in vitro = conditions: human, kb cells
# [1] = Compound 1, 250 mg/kg/day ip, Drug + Virus, schedule 1
# [2] = Compound 1, 500 mg/kg/day ip, Drug + Virus, schedule 1
# [3] = Compound 1, 1000 mg/kg/day ip, Drug + Virus, schedule 1
# [4] = Compound 1, 250 mg/kg/day ip, schedule 1
# [5] = Compound 1, 500 mg/kg/day ip, schedule 1
# [6] = Compound 1, 1000 mg/kg/day ip, schedule 1
# [7] = Compound 2, 75 mg/kg/day ip, Drug + Virus, schedule 1
# [8] = Compound 2, 250 mg/kg/day ip, Drug + Virus, schedule 3
# [9] = Compound 2, 500 mg/kg/day ip, Drug + Virus, schedule 3
# [10] = Compound 2, 1000 mg/kg/day ip, Drug + Virus, schedule 2
# [11] = Compound 2, 250 mg/kg/day ip, schedule 3
# [12] = Compound 2, 500 mg/kg/day ip, schedule 3
# [13] = Compound 2, 1000 mg/kg/day ip, schedule 2
compound,measurement,setting,value
"NC(=O)c1nc[nH]n1 [Compound 1, 1,2,4-Triazole-3-carboxamide]",% Conversion,Nucleoside Phosphorylase; - enzyme,0.8%
same,% Conversion,"Nucleoside Phosphorylase; - ribose-1-P, + enzyme, 80μg",1.1%
same,Virus Rating,Type 1 Herpes,0.6-0.9
same,Virus Rating,Type 2 Herpes,0.4
same,Virus Rating,Vaccinia,0.8
same,Virus Rating,Type 1A Rhino,0.4-0.5
same,Virus Rating,Type 13 Rhino,0.3
same,Virus Rating,Type 8 Rhino,0.2
same,Virus Rating,Type 56 Rhino,0.3
same,Virus Rating,Type 3 Parainfluenza,0.5-0.7
same,inhibition at 20 µg/mL,Measles,34%
same,inhibition at 100 µg/mL,Measles,97%
same,inhibition at 500 µg/mL,Measles,99%
same,MST,influenza A2 virus; [1],17.5 days
same,Survivors Per Total,"influenza A2 virus; Compound 1, 250 mg/kg/day ip, Drug + Virus, schedule 1 (P<0.05)",8/10
same,Average Lung Consolidation,influenza A2 virus; [1],1.4
same,MST,influenza A2 virus; [2],12.0 days
same,Survivors Per Total,"influenza A2 virus; Compound 1, 500 mg/kg/day ip, Drug + Virus, schedule 1 (P<0.1)",7/10
same,Average Lung Consolidation,influenza A2 virus; [2],2.5
same,MST,influenza A2 virus; [3],15 days
same,Survivors Per Total,"influenza A2 virus; Compound 1, 1000 mg/kg/day ip, Drug + Virus, schedule 1 (P<0.05)",8/10
same,Average Lung Consolidation,influenza A2 virus; [3],2.0
same,HA Titer Per ml,"influenza A2 virus; Compound 1, 1000 mg/kg/day ip, Drug + Virus, schedule 1, lung homogenates Day 25",1.3
same,effectiveness against influenza virus,influenza A2 virus,particularly effective against influenza virus
same,MST,mice; [4],> 21.0 days
same,Survivors Per Total,mice; [4],5/5
same,MST,mice; [5],> 21.0 days
same,Survivors Per Total,mice; [5],5/5
same,MST,mice; [6],> 21 days
same,Survivors Per Total,mice; [6],5/5
same,toxicity to mice,"mice; concentrations as high as 1000 mg/kg/day, intraperitoneally twice daily for 9 days",nontoxic
same,MCC,in vitro,32 to 1000 µg/mL
"NC(=S)c1nc[nH]n1 [Compound 2, 1,2,4-Triazole-3-thiocarboxamide]",Virus Rating,Type 1 Herpes,0.4-0.8
same,Virus Rating,Type 2 Herpes,0.3
same,Virus Rating,Vaccinia,0.5
same,Virus Rating,Type 1A Rhino,0.2-0.4
same,Virus Rating,Type 13 Rhino,0.4
same,Virus Rating,Type 8 Rhino,0.3
same,Virus Rating,Type 56 Rhino,0.4
same,Virus Rating,Type 3 Parainfluenza,0.2-0.4
same,inhibition at 20 µg/mL,Measles,5%
same,inhibition at 100 µg/mL,Measles,98%
same,inhibition at 500 µg/mL,Measles,100%
same,MST,influenza A2 virus; [7],> 21.0 days
same,Survivors Per Total,"influenza A2 virus; Compound 2, 75 mg/kg/day ip, Drug + Virus, schedule 1 (P<0.001)",10/10
same,Average Lung Consolidation,influenza A2 virus; [7],1.0
same,MST,influenza A2 virus; [8],9.2 days
same,Survivors Per Total,"influenza A2 virus; Compound 2, 250 mg/kg/day ip, Drug + Virus, schedule 3 (P<0.2)",6/10
same,Average Lung Consolidation,influenza A2 virus; [8],3.6
same,MST,influenza A2 virus; [9],7.6 days
same,Survivors Per Total,"influenza A2 virus; Compound 2, 500 mg/kg/day ip, Drug + Virus, schedule 3 (P>0.3)",5/10
same,Average Lung Consolidation,influenza A2 virus; [9],2.2
same,MST,influenza A2 virus; [10],8.3 days
same,Survivors Per Total,"influenza A2 virus; Compound 2, 1000 mg/kg/day ip, Drug + Virus, schedule 2 (P>0.3)",3/10
same,Average Lung Consolidation,influenza A2 virus; [10],3.7
same,effectiveness against influenza virus,influenza A2 virus,particularly effective against influenza virus
same,MST,mice; [11],> 21.0 days
same,Survivors Per Total,mice; [11],5/5
same,Average Lung Consolidation,mice; [11],0.5
same,HA Titer Per ml,mice; [11],0
same,MST,mice; [12],9.0 days
same,Survivors Per Total,mice; [12],4/5
same,Average Lung Consolidation,mice; [12],2.0
same,HA Titer Per ml,mice; [12],0
same,MST,mice; [13],4.2 days
same,Survivors Per Total,mice; [13],0/5
same,toxicity to mice,"mice; concentrations as low as 250 mg/kg/day, intraperitoneally, same treatment regimen (twice daily for 9 days)",moderately toxic as evidenced by weight loss and death
same,MCC,in vitro,≥ 1 µg/mL
"NC(=O)c1ncn([C@@H]2O[C@H](CO)[C@@H](O)[C@H]2O)n1 [Compound 3, 1-β-D-Ribofuranosyl-1,2,4-triazole-3-carboxamide]",Virus Rating,Type 1 Herpes,1.0-1.5
same,Virus Rating,Type 2 Herpes,1.3
same,Virus Rating,Vaccinia,0.9-1.0
same,Virus Rating,Type 1A Rhino,0.6
same,Virus Rating,Type 13 Rhino,0.5
same,Virus Rating,Type 8 Rhino,0.8
same,Virus Rating,Type 56 Rhino,0.9
same,Virus Rating,Type 3 Parainfluenza,0.6-1.0
same,inhibition at 20 µg/mL,Measles,30%
same,inhibition at 100 µg/mL,Measles,94%
same,inhibition at 500 µg/mL,Measles,100%
